{"source": "paper PMC11435058", "about": "“Synthesis of New Thiazole-Privileged Chalcones as Tubulin Polymerization Inhibitors with Potential Anticancer Activities” (Pharmaceuticals, 2024)", "key": {"RPMI-8226": {"test_system": "RPMI-8226", "assay": "NCI-60 anticancer screen (SRB; single dose and five doses)", "conditions": "Homo sapiens; for activity at 10 µM: RPMI-8226, 48 h, read-out: Growth Percentage; for CC50: RPMI-8226, read-out: LC50; for IC (TGI): RPMI-8226, read-out: TGI"}, "NCI-H460": {"test_system": "NCI-H460", "assay": "NCI-60 anticancer screen (SRB; single dose and five doses)", "conditions": "Homo sapiens; for GI50 / pIC50: NCI-H460; for activity at 10 µM: NCI-H460, 48 h, read-out: Growth Percentage; for CC50: NCI-H460, read-out: LC50; for IC (TGI): NCI-H460, read-out: TGI"}, "KM12": {"test_system": "KM12", "assay": "NCI-60 anticancer screen (SRB; single dose and five doses)", "conditions": "Homo sapiens; for GI50 / pIC50: KM12; for activity at 10 µM: KM12, 48 h, read-out: Growth Percentage; for CC50: KM12, read-out: LC50; for IC (TGI): KM12, read-out: TGI"}, "OVCAR-5": {"test_system": "OVCAR-5", "assay": "NCI-60 anticancer screen (SRB; single dose and five doses)", "conditions": "Homo sapiens; for GI50 / pIC50: OVCAR-5; for activity at 10 µM: OVCAR-5, 48 h, read-out: Growth Percentage; for CC50: OVCAR-5, read-out: LC50; for IC (TGI): OVCAR-5, read-out: TGI"}, "A549/ATCC": {"test_system": "A549/ATCC", "assay": "NCI-60 anticancer screen (SRB; single dose and five doses)", "conditions": "Homo sapiens; for GI50 / pIC50: A549; for activity at 10 µM: A549, 48 h, read-out: Growth Percentage; for CC50: A549, read-out: LC50; for IC (TGI): A549, read-out: TGI"}, "NCI/ADR-RES": {"test_system": "NCI/ADR-RES", "assay": "NCI-60 anticancer screen (SRB; single dose and five doses)", "conditions": "Homo sapiens; for activity at 10 µM: 48 h, read-out: Growth Percentage; for CC50: read-out: LC50; for IC (TGI): read-out: TGI"}, "LOX IMVI": {"test_system": "LOX IMVI", "assay": "NCI-60 anticancer screen (SRB; single dose and five doses)", "conditions": "Homo sapiens; for activity at 10 µM: 48 h, read-out: Growth Percentage; for CC50: read-out: LC50; for IC (TGI): read-out: TGI"}, "tubulin": {"test_system": "tubulin", "assay": "In vitro tubulin polymerization inhibition assay", "assay_type": "biochemical", "conditions": "4 mg/mL tubulin, 37°C, absorbance at 340 nm", "procedure": "4.2.2. In Vitro Tubulin Polymerization Inhibition Assay.\n2p, and the reference drug CD -4) with the microtubule system. Specifically, the in vitro inhibition of tubulin polymerization was evaluated for these compounds. The standard tubulin polymerization reaction was carried out, containing 100 μL of 4 mg/mL tubulin in a buffer solution of 80 mM PIPES (pH 6.9), 0.5 mM EGTA, 2 mM MgCl2, and 1 mM GTP. Polymerization was initiated by incubating the reaction […]\nUnder these conditions, polymerization typically reaches a maximum absorbance of […]\ngrowth, and steady state. In this experimental set up, an absorbance of 0.1 at 340 nm corresponds to approximately 1 mg/mL of polymerized tubulin, meaning that around […]\n40% of the tubulin is polymerized, allowing for the detection of both enhancers and inhibitors of polymerization. The inhibitory effect of each compound on tubulin polymerization was quantified by determining the IC50 values, which were reported as the mean ± standard deviation from three independent experiments. […]"}, "SR": {"test_system": "SR", "assay": "NCI-60 anticancer screen (SRB; single dose and five doses)", "conditions": "Homo sapiens; for CC50: read-out: LC50; for IC (TGI): read-out: TGI"}}, "note": "pIC50: −log10 of the molar value."}
{"smiles": "COc1cc(/C=C/C(=O)c2sc(=S)[nH]c2C)cc(OC)c1OC", "note": "[2p, (E)-1-(4-Methyl-2-Thioxo-2,3-Dihydrothiazol-5-yl)-3-(3,4,5-Trimethoxyphenyl)Prop-2-En-1-One]", "values": [{"measurement": "GI50", "setting": "RPMI-8226; RPMI-8226", "result": 2.19, "unit": "µM"}, {"measurement": "pIC50", "setting": "RPMI-8226; RPMI-8226", "result": 5.35}, {"measurement": "activity at 10 µM", "setting": "RPMI-8226", "result": 5.31, "unit": "%"}, {"measurement": "CC50", "setting": "RPMI-8226", "result": "> 100", "unit": "µM"}, {"measurement": "IC (TGI)", "setting": "RPMI-8226", "result": 9.12, "unit": "µM"}, {"measurement": "GI50", "setting": "NCI-H460", "result": 2.14, "unit": "µM"}, {"measurement": "pIC50", "setting": "NCI-H460", "result": 5.48}, {"measurement": "activity at 10 µM", "setting": "NCI-H460", "result": -1.34, "unit": "%"}, {"measurement": "CC50", "setting": "NCI-H460", "result": 44.7, "unit": "µM"}, {"measurement": "IC (TGI)", "setting": "NCI-H460", "result": 5.62, "unit": "µM"}, {"measurement": "GI50", "setting": "KM12", "result": 3.24, "unit": "µM"}, {"measurement": "pIC50", "setting": "KM12", "result": 5.19}, {"measurement": "activity at 10 µM", "setting": "KM12", "result": 9.52, "unit": "%"}, {"measurement": "CC50", "setting": "KM12", "result": 42.7, "unit": "µM"}, {"measurement": "IC (TGI)", "setting": "KM12", "result": 13.8, "unit": "µM"}, {"measurement": "GI50", "setting": "OVCAR-5", "result": 3.8, "unit": "µM"}, {"measurement": "pIC50", "setting": "OVCAR-5", "result": 4.91}, {"measurement": "activity at 10 µM", "setting": "OVCAR-5", "result": 6.56, "unit": "%"}, {"measurement": "CC50", "setting": "OVCAR-5", "result": 43.6, "unit": "µM"}, {"measurement": "IC (TGI)", "setting": "OVCAR-5", "result": 15.1, "unit": "µM"}, {"measurement": "GI50", "setting": "A549/ATCC", "result": 3.55, "unit": "µM"}, {"measurement": "pIC50", "setting": "A549/ATCC", "result": 5.30}, {"measurement": "activity at 10 µM", "setting": "A549/ATCC", "result": 26.6, "unit": "%"}, {"measurement": "CC50", "setting": "A549/ATCC", "result": 44.7, "unit": "µM"}, {"measurement": "IC (TGI)", "setting": "A549/ATCC", "result": 13.8, "unit": "µM"}, {"measurement": "GI50", "setting": "NCI/ADR-RES", "result": 2.4, "unit": "µM"}, {"measurement": "pIC50", "setting": "NCI/ADR-RES", "result": 5.36}, {"measurement": "activity at 10 µM", "setting": "NCI/ADR-RES", "result": 0.58, "unit": "%"}, {"measurement": "CC50", "setting": "NCI/ADR-RES", "result": "> 100", "unit": "µM"}, {"measurement": "IC (TGI)", "setting": "NCI/ADR-RES", "result": 7.41, "unit": "µM"}, {"measurement": "GI50", "setting": "LOX IMVI", "result": 3.24, "unit": "µM"}, {"measurement": "pIC50", "setting": "LOX IMVI", "result": 5.35}, {"measurement": "activity at 10 µM", "setting": "LOX IMVI", "result": 17.1, "unit": "%"}, {"measurement": "CC50", "setting": "LOX IMVI", "result": 38.9, "unit": "µM"}, {"measurement": "IC (TGI)", "setting": "LOX IMVI", "result": 12, "unit": "µM"}, {"measurement": "pIC50", "setting": "tubulin", "result": 4.60}, {"measurement": "GI50", "setting": "SR", "result": 2.34, "unit": "µM"}, {"measurement": "pIC50", "setting": "SR", "result": 5.42}, {"measurement": "CC50", "setting": "SR", "result": "> 100", "unit": "µM"}, {"measurement": "IC (TGI)", "setting": "SR", "result": 16.2, "unit": "µM"}]}
{"smiles": "Cc1[nH]c(=S)sc1C(=O)/C=C/c1cccc([N+](=O)[O-])c1", "note": "[2h, (E)-1-(4-Methyl-2-Thioxo-2,3-Dihydrothiazol-5-yl)-3-(3-Nitrophenyl)Prop-2-En-1-One]", "values": [{"measurement": "GI50", "setting": "RPMI-8226; RPMI-8226", "result": 2.04, "unit": "µM"}, {"measurement": "activity at 10 µM", "setting": "RPMI-8226", "result": 9.39, "unit": "%"}, {"measurement": "pIC50", "setting": "RPMI-8226; RPMI-8226, five-dose, Leukemia RPMI-8226", "result": 5.43}, {"measurement": "CC50", "setting": "RPMI-8226", "result": "> 100", "unit": "µM"}, {"measurement": "IC (TGI)", "setting": "RPMI-8226", "result": 6.31, "unit": "µM"}, {"measurement": "GI50", "setting": "NCI-H460", "result": 3.63, "unit": "µM"}, {"measurement": "pIC50", "setting": "NCI-H460", "result": 5.37}, {"measurement": "activity at 10 µM", "setting": "NCI-H460", "result": -30.7, "unit": "%"}, {"measurement": "CC50", "setting": "NCI-H460", "result": 55, "unit": "µM"}, {"measurement": "IC (TGI)", "setting": "NCI-H460", "result": 13.8, "unit": "µM"}, {"measurement": "GI50", "setting": "KM12", "result": 3.63, "unit": "µM"}, {"measurement": "pIC50", "setting": "KM12", "result": 5.27}, {"measurement": "activity at 10 µM", "setting": "KM12", "result": -78.4, "unit": "%"}, {"measurement": "CC50", "setting": "KM12", "result": 42.7, "unit": "µM"}, {"measurement": "IC (TGI)", "setting": "KM12", "result": 13.2, "unit": "µM"}, {"measurement": "GI50", "setting": "OVCAR-5", "result": 3.63, "unit": "µM"}, {"measurement": "pIC50", "setting": "OVCAR-5", "result": 5.04}, {"measurement": "activity at 10 µM", "setting": "OVCAR-5", "result": -37.4, "unit": "%"}, {"measurement": "CC50", "setting": "OVCAR-5", "result": 38.9, "unit": "µM"}, {"measurement": "IC (TGI)", "setting": "OVCAR-5", "result": 13.8, "unit": "µM"}, {"measurement": "GI50", "setting": "A549/ATCC", "result": 3.24, "unit": "µM"}, {"measurement": "pIC50", "setting": "A549/ATCC", "result": 5.35}, {"measurement": "activity at 10 µM", "setting": "A549/ATCC", "result": 19.5, "unit": "%"}, {"measurement": "CC50", "setting": "A549/ATCC", "result": 55, "unit": "µM"}, {"measurement": "IC (TGI)", "setting": "A549/ATCC", "result": 12, "unit": "µM"}, {"measurement": "GI50", "setting": "NCI/ADR-RES", "result": 2.51, "unit": "µM"}, {"measurement": "pIC50", "setting": "NCI/ADR-RES", "result": 5.37}, {"measurement": "activity at 10 µM", "setting": "NCI/ADR-RES", "result": 8.19, "unit": "%"}, {"measurement": "CC50", "setting": "NCI/ADR-RES", "result": "> 100", "unit": "µM"}, {"measurement": "IC (TGI)", "setting": "NCI/ADR-RES", "result": 5.75, "unit": "µM"}, {"measurement": "GI50", "setting": "LOX IMVI", "result": 1.58, "unit": "µM"}, {"measurement": "pIC50", "setting": "LOX IMVI", "result": 5.56}, {"measurement": "activity at 10 µM", "setting": "LOX IMVI", "result": -99, "unit": "%"}, {"measurement": "CC50", "setting": "LOX IMVI", "result": 6.03, "unit": "µM"}, {"measurement": "IC (TGI)", "setting": "LOX IMVI", "result": 3.09, "unit": "µM"}, {"measurement": "pIC50", "setting": "tubulin", "result": 4.90}, {"measurement": "GI50", "setting": "SR", "result": 2.75, "unit": "µM"}, {"measurement": "pIC50", "setting": "SR", "result": 5.41}, {"measurement": "activity at 10 µM", "setting": "SR; 48 h, read-out: Growth Percentage", "result": -11, "unit": "%"}, {"measurement": "CC50", "setting": "SR", "result": "> 100", "unit": "µM"}, {"measurement": "IC (TGI)", "setting": "SR", "result": "> 100", "unit": "µM"}]}
